Reference: PMC12350162, “Electron flow in hydrogenotrophic methanogens under nickel limitation” (Nature, 2025)

Legend:
[1] = target: T1, Elp–Hdr complex, HdrA site (bifurcating FAD) (Methanothermobacter marburgensis, UniProt Q50756); assay: cryo-EM structure; type: binding; conditions: electron-bifurcating FAD site of HdrA; co-purified native cofactor
T1 construct: with H(2):CoB-CoM heterodisulfide,ferredoxin reductase subunit B; H(2):CoB-CoM heterodisulfide,ferredoxin reductase subunit C; F420-dependent electron-donating protein A (truncated formate dehydrogenase alpha subunit FdhA homologue); F420-dependent electron-donating protein B (formate dehydrogenase beta subunit FdhB homologue); F420-dependent electron-donating protein C (MvhD homologue)
T1 sequence (Q50756 2-659): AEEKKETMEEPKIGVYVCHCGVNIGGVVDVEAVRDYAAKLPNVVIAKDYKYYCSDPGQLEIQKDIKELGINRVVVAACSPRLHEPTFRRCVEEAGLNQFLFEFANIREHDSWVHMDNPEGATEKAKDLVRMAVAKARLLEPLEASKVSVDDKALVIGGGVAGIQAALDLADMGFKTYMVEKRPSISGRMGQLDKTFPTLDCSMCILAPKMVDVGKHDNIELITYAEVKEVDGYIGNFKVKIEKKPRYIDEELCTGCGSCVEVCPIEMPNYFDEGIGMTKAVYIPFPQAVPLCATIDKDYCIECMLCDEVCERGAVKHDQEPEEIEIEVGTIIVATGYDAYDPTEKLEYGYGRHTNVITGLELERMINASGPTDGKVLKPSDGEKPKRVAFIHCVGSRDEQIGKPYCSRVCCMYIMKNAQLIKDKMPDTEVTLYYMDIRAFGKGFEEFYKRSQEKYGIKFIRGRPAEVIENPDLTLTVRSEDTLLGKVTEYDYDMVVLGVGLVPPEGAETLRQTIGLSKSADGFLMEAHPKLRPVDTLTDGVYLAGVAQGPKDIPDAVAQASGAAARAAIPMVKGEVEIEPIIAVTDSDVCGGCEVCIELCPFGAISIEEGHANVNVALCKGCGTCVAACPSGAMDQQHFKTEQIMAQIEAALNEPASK
T1 sequence (Q50755 whole entry partner, the tested form may be a part): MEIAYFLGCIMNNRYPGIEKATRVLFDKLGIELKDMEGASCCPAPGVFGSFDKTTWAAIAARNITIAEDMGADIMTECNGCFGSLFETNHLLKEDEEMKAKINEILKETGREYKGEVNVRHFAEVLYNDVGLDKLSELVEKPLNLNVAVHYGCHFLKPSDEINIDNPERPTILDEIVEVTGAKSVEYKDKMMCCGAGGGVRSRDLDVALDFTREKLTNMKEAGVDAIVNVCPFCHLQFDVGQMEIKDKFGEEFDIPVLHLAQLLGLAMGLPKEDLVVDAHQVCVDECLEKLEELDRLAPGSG
T1 sequence (Q50754 2-185 partner): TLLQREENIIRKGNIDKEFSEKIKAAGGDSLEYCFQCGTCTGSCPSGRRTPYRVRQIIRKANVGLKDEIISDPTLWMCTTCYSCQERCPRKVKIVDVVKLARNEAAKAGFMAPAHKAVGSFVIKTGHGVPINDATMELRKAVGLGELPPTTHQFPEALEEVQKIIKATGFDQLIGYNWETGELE
T1 sequence (D9PY04 1-342 partner): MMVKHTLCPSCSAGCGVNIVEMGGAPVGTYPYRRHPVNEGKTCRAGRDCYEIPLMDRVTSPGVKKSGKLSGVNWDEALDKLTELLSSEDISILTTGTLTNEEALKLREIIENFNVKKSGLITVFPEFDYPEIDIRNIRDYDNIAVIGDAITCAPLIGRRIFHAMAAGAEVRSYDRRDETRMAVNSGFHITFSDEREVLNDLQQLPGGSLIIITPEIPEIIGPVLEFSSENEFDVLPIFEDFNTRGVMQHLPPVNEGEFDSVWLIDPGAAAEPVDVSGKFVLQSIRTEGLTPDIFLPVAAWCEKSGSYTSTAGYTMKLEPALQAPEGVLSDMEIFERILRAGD
T1 sequence (D9PY03 1-380 partner): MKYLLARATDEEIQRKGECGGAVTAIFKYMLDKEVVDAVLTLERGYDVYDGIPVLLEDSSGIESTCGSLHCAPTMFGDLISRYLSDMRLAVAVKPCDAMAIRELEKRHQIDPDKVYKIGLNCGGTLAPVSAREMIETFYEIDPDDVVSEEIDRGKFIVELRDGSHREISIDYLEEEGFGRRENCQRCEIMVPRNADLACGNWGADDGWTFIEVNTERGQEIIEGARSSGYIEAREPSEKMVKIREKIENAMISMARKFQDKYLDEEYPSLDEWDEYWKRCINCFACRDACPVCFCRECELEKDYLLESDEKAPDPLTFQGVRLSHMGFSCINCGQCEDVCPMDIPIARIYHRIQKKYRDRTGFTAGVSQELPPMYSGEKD
T1 sequence (D9PY02 1-136 partner): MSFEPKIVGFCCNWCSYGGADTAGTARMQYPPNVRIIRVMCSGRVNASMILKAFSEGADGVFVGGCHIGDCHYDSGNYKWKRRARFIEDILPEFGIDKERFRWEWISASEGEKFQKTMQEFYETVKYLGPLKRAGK

[2] = target: T2, Elp–Hdr complex (ElpABC–HdrABC)2, ElpB site (Methanothermobacter marburgensis, UniProt D9PY03); assay: cryo-EM structure; conditions: FAD-binding site of ElpB; co-purified native cofactor; states 1 and 2
T2 construct: gene fdhB; with F420-dependent electron-donating protein A (truncated formate dehydrogenase alpha subunit FdhA homologue); F420-dependent electron-donating protein C (MvhD homologue); H(2):CoB-CoM heterodisulfide,ferredoxin reductase subunit A; H(2):CoB-CoM heterodisulfide,ferredoxin reductase subunit B; H(2):CoB-CoM heterodisulfide,ferredoxin reductase subunit C
T2 sequence (D9PY03 1-380): as the sequence (D9PY03 1-380 partner) above
T2 sequence (D9PY04 1-342 partner): as the sequence (D9PY04 1-342 partner) above
T2 sequence (D9PY02 1-136 partner): as the sequence (D9PY02 1-136 partner) above
T2 sequence (Q50756 2-659 partner): as the sequence (Q50756 2-659) above
T2 sequence (Q50755 whole entry partner, the tested form may be a part): as the sequence (Q50755 whole entry partner, the tested form may be a part) above
T2 sequence (Q50754 2-185 partner): as the sequence (Q50754 2-185 partner) above

## Cc1cc2nc3c(=O)[nH]c(=O)nc-3n(C[C@H](O)[C@H](O)[C@H](O)COP(=O)(O)OP(=O)(O)OC[C@H]3O[C@@H](n4cnc5c(N)ncnc54)[C@H](O)[C@@H]3O)c2cc1C [FAD]
[1]
  cryo-EM structure: Cofactors including the electron-bifurcating FAD of HdrA
[2]
  cryo-EM structure: the positions of FAD and the four [4Fe–4S] clusters are conserved
